In US8372830B2, “Methods for using vasopressin antagonists with anthracycline chemotherapy agents to reduce cardiotoxicity and/or improve survival” (Otsuka Pharmaceutical Co., Ltd., priority 2007, dated 2013):

Key:
[1] = tested on: doxorubicin toxicity under elevated vasopressin condition
Description: This condition may be relevant to certain cancer patients who have elevated vasopressin release and are undergoing chemotherapy, such as with doxorubicin.
Two groups of rats were studied and the protocol is described in FIG. 13. Rats were intravenously injected with doxorubicin (3 mg/kg) 3 times once every other day for a total of 9 mg/kg (same as described in Example 4). One group (Dox+DDAVP) was given vehicle and the other group (Dox+DDAVP+Tol) was administered tolvaptan (10 mg/kg) once daily. An osmotic minipump (infusion rate: 0.15 μl/h, ALZET model 2006, ALZA Corporation) was implanted in each rat for continuous subcutaneous infusion of 1 ng/h of DDAVP (a vasopressin V2 agonist [deamino-Cys1, D-Arg8]-vasopressin).

[2] = tested on: total white blood cell (WBC) and lymphocyte (LY) counts; experiment: Myelosuppression: blood cell counts after doxorubicin (Example 3)
Description: (§1) To determine whether tolvaptan affects the plasma concentration of doxorubicin, plasma samples were obtained after the first (day 1) and sixth (day 13) injection of doxorubicin with vehicle or tolvaptan, and the plasma concentration of doxorubicin was measured.
Anthracyclines including doxorubicin are known to cause myelosuppression due to their ability to intercalate into DNA, and to inhibit new protein synthesis and cell proliferation in the bone marrow (similar mechanisms are involved in the inhibition of cancer cell proliferation). Myelosuppression was used as an index of the ability of doxorubicin to inhibit cell proliferation and anti-cancer effect. […] Blood samples were taken after 1 or 13 days of treatment with doxorubicin.

[3] = Plasma concentration of doxorubicin with vehicle or tolvaptan (Example 3); type: in vivo, rat; details: after first (day 1) and sixth (day 13) doxorubicin injection; tolvaptan vs vehicle; FIG. 6
Description: as §1

[4] = tested on: doxorubicin-induced cardiac toxicity and animal death; experiment: Survival of rats given repeated intraperitoneal injections of doxorubicin (Example 1); type: in vivo, rat; details: tolvaptan 10 mg/kg orally daily
Description: Repeated injection of doxorubicin in animals is known to cause cardiac injury and to increase mortality. A study was designed to investigate the effect of tolvaptan on doxorubicin-induced cardiac toxicity and animal death. Four groups of rats were evaluated; all with 6 injections of doxorubicin (2.5 mg/kg each) during a two week period. To test the ability of tolvaptan to prevent toxicity, tolvaptan (10 mg/kg orally) daily was given to one group of rats (Tol+Dox). Another group of rats was given vehicle only (Veh+Dox). To test the ability of tolvaptan to reverse the toxicity, tolvaptan (10 mg/kg orally) daily was given to one group of rats, starting after the completion of doxorubicin administration (Dox+Tol). Another group of rats was given vehicle only (Dox+Veh). Table 1 summarizes the group designations:
Survival was analyzed using Kaplan-Meier survival analysis with the Log-Rank test.

[5] = tested on: left ventricle; experiment: Echocardiography of cardiac function, rat model with intravenous injection of doxorubicin (Example 4); type: in vivo
Description: In a clinical setting, doxorubicin is administered intravenously to cancer patients. Furthermore, the major side effect associated with doxorubicin treatment is cardiac dysfunction and development of CHF. Therefore, the effect of tolvaptan on CHF was evaluated in a rat model with intravenous injection of doxorubicin. Cardiac function was determined using high resolution ultrasonograpy. Rats were divided into 3 groups as described in Table 2, and observed for 10 weeks. [table] Control rats were not treated. […] Rats were given either vehicle or tolvaptan (10 mg/kg) daily starting on the first day of doxorubicin injection. On the days with co-administration of doxorubicin and tolvaptan, tolvaptan was given by oral gavage 45 min prior to the intravenous injection of doxorubicin. Cardiac function was evaluated using echocardiography (Vevo 770, Visualsonics Inc, Toronto, Canada). Echo images were taken once a week for 10 consecutive weeks. Rats were anesthetized with Isoflurane and parasternal long and short axis echo images were recorded. Offline analysis of cardiac function (ejection fraction and fraction shortening) and anatomic data of the heart (LV end diastolic diameter and volume) were performed. At the end of the 10-week period, cardiac contractility (LVdp/dtmax/ip) was measured invasively.

[6] = tested on: left ventricle; experiment: Invasive hemodynamic measurement of cardiac contractility at end of 10 weeks (Example 4); type: in vivo, rat; details: tolvaptan-treated vs vehicle-treated doxorubicin rats, FIG. 12
Description: Control rats were not treated. For groups 2 and 3 with doxorubicin treatment, rats were given three injections intravenously of doxorubicin (3 mg/kg each) every other day (total dose of 9 mg/kg). […] Rats were given either vehicle or tolvaptan (10 mg/kg) daily starting on the first day of doxorubicin injection. On the days with co-administration of doxorubicin and tolvaptan, tolvaptan was given by oral gavage 45 min prior to the intravenous injection of doxorubicin.
Invasive hemodynamic measurements were performed at the end of the 10 week period.

[7] = tested on: doxorubicin-treated rats; details: antagonist given several weeks after doxorubicin, previous study (ref. 25); cited from earlier work
[8] = tested on: doxorubicin-induced mortality; experiment: DDAVP infusion and doxorubicin-induced mortality (Example 2); type: in vivo, rat; details: DDAVP 1 ng/h s.c. infusion 14 days + doxorubicin 6 x 2.5 mg/kg i.p.; vs doxorubicin alone; p<0.001 Log-Rank; FIG. 4
Description: The present inventors investigated whether activation of V2 receptors can accelerate doxorubicin-induced mortality. A continuous subcutaneous infusion of 1 ng/h of DDAVP (deamino-Cyst, D-Arg-vasopressin) per animal was accomplished using an osmotic minipump (infusion rate: 0.5 μL/h, ALZET model 2002, DURECT Corporation, Cupertino, Calif.) for 14 days. On day 0 an osmotic minipump was implanted subcutaneously. The sham control rats had the same surgical procedure but with only saline in the minipump. The rats were then divided into two groups: one with six intraperitoneal injections of doxorubicin (2.5 mg/kg) during a 13 day period, and one with injections of saline. The rats were fed with liquid food throughout the experiment. With the continuous infusion of DDAVP, liquid food feeding increases systemic volume overload and edema, conditions often observed in CHF patients.

[9] = thirteen-day treatment with doxorubicin, FIG. 7

## Cc1ccccc1C(=O)Nc1ccc(C(=O)N2CCCC(O)c3cc(Cl)ccc32)c(C)c1 (centres unmarked) [tolvaptan, 7-chloro-5-hydroxy-1-[2-methyl-4-(2-methylbenzoyl-amino)benzoyl]-2,3,4,5-tetrahydro-1H-benzazepine]
[1]; tolvaptan 10 mg/kg once daily, Dox+DDAVP+Tol vs Dox+DDAVP, FIG. 14
  survival (Kaplan-Meier): significantly improved
[2]; rat, in vivo
  effect on the myelosuppressive effect of doxorubicin: did not affect
[3]
  effect on plasma concentration of doxorubicin: did not affect
[4]; initiated after completion of 6 doxorubicin injections, 5 rats per group, FIG. 2
  delay of rat death: only a small delay
[4]; initiated after completion of 6 doxorubicin injections, FIG. 2
  protective effect on mortality: largely lost
[4]; starting with first doxorubicin injection (6 x 2.5 mg/kg i.p.), 12 weeks, vs vehicle, p<0.001, FIG. 1
  mortality rate (Kaplan-Meier survival analysis, Log-Rank test): significantly reduced
[5]; tolvaptan 10 mg/kg orally daily from first day of doxorubicin, vs vehicle, FIGS. 8 and 9
  cardiac function (fractional shortening, ejection fraction): significantly improved
[5]; tolvaptan 10 mg/kg orally daily with doxorubicin, FIGS. 10 and 11
  remodeling process of the left ventricle: slowed
[6]
  contractility index (LVdp/dtmax normalized to instantaneous LV pressure): higher

## Cc1ccccc1C(=O)Nc1ccc(C(=O)N2CCCC(N(C)C)c3ccccc32)cc1 (centres unmarked) [OPC-31260]
[7]
  mortality rate: slight but not significant reduction

## NC(=O)CC[C@@H]1NC(=O)[C@H](Cc2ccccc2)NC(=O)[C@H](Cc2ccc(O)cc2)NC(=O)CCSSC[C@@H](C(=O)N2CCC[C@H]2C(=O)N[C@H](CCCN=C(N)N)C(=O)NCC(N)=O)NC(=O)[C@H](CC(N)=O)NC1=O [DDAVP, [deamino-Cys1, D-Arg8]-vasopressin]
[1]; DDAVP 1 ng/h s.c. infusion + doxorubicin 3 x 3 mg/kg i.v., FIG. 14
  toxicity of doxorubicin under DDAVP infusion: very toxic
[1]; DDAVP 1 ng/h s.c. infusion + doxorubicin 3 x 3 mg/kg i.v., vehicle
  time in which rats died: 2 weeks
[8]
  death rate from doxorubicin: significantly accelerated

## COc1cccc2c1C(=O)c1c(O)c3c(c(O)c1C2=O)C[C@@](O)(C(=O)CO)C[C@@H]3O[C@H]1C[C@H](N)[C@H](O)[C@H](C)O1 [doxorubicin]
[2]; one day treatment with doxorubicin
  blood cell counts: did not affect
[2]; [9]
  lymphocyte (LY) count: significantly reduced
  total white blood cell (WBC) count: significantly reduced
[5]; doxorubicin 3 x 3 mg/kg i.v. every other day, weekly echo for 10 weeks, FIG. 8
  fractional shortening of the left ventricle: progressively decreased
[5]; doxorubicin 3 x 3 mg/kg i.v. every other day, weekly echo for 10 weeks, FIG. 9
  ejection fraction of the left ventricle: progressively decreased
[5]; doxorubicin 3 x 3 mg/kg i.v., weight adjusted, FIG. 10
  left ventricle diastolic volume: progressively increased
[5]; doxorubicin 3 x 3 mg/kg i.v., weight adjusted, FIG. 11
  left ventricle diastolic diameter: progressively increased
